Entries after “also recorded” stand apart in the source; their conditions may differ. Bridges are numbered along the chain shown (N, C = ends). Where no end group is shown, it is not given here.
Experiments:
U-937 cells [1] = assay: Direct effect of peptides on U-937 cell proliferation ([3H]-thymidine incorporation); assay type: cell-based, human; settings: peptides in dose 1 mM; U-937 cell proliferation vs control without additions
Experimental: Cells, cultivated without additions, were taken as a control.
(§1) To assess growth regulative activity of peptides various doses of peptides were added to the cells for 24 h and then the cells were assessed for proliferation, cell viability and DNA-fragmentation. To determine ability of peptides to modulate apoptosis induced by other factors Jurkat cells were treated with 20 ng/ml of CH-11 antibodies without ActD, Raji cells were treated with CH-11 in the presence of 0.5 μg/ml of ActD for 18 h. For induction of apoptosis with TNF-α, cells (Jurkat, MCF7 or U937) were treated for 24 h with 25 ng/ml of the cytokine and then were assessed for proliferation or viability as described above. HepG2 cells were pre-washed before TNF addition with fresh medium to remove endogenous growth factors.

U-937 cells [2] = assay: Modulation of AFP-induced apoptosis / growth suppression in U-937 cells ([3H]-thymidine incorporation); assay type: cell-based, human; settings: for Effect on AFP-induced apoptosis in whole cells (in words): 15 min peptide pre-treatment, then 3 μM AFP, 24 h
Experimental: Cell proliferation was assessed by [^3H]-thymidine incorporation assay after 24 h of incubation.
The cells were treated for […] with various doses of the peptides and thereafter 3 μM pure human AFP was added to each well. Cell proliferation was assessed by the [^3H]-thymidine incorporation assay after 24 h of incubation.
The cells were treated for 15 min with various doses of the peptide and thereafter 3 μM pure human AFP was added to each well. Cell proliferation was assessed by the [^3H]-thymidine incorporation assay after 24 h of incubation.
U937 cells were plated out at a density of 4×10^3 cells/well in flat-bottom 96-well plates (Costar) in the complete medium and incubated for 2 h before reagent additions. Then cells were treated for 24 h with various doses of AFP dissolved in PBS and then assessed for proliferation. Cell treatment with cytotoxic IgM anti-Fas antibody CH-11 was performed as described. U937 cells were treated with 50 ng/ml of CH-11 antibodies for 18 h. Cells were left untreated or were treated with reagents for adequate time intervals and for the last 4 h of culture were subjected to their [^3H]-thymidine (1 Ci/mmol/well) incorporation. Experimental data were expressed as a percentage of [^3H]-thymidine incorporation in triplicate cultures relative to the medium control. Cells, cultivated without additions, were taken as a control.
as §1

[3] = system: caspase-3 activation (DEVDase activity); assay: dATP-dependent Cyt c-induced caspase-3 (DEVDase) activation in cell-free cytosolic extracts of HepG2 cells; assay type: biochemical, human; settings: for Effect on high dose cytochrome c-mediated caspase activation (in words) / Effect on low dose cytochrome c-induced caspase activation (in words): cell-free extracts, 15 min pre-treatment; for Effect on high dose cytochrome c-mediated caspase activation (in words) / Effect on low dose cytochrome c-induced caspase activation (in words) / Effect on the high dose Cyt c-induced caspase activation: peptides 750 μM; for Effect on high dose cytochrome c-mediated caspase activation (in words): high dose (165 nM) cytochrome c; for Effect on low dose cytochrome c-induced caspase activation (in words): low dose (110 nM) cytochrome c; for Effect on the high dose Cyt c-induced caspase activation / Effect on the low dose Cyt c-induced caspase activation (stimulation, or result in words) / Effect on the low dose Cyt c-induced caspase activation (abrogation): DEVDase activity; for Effect on the high dose Cyt c-induced caspase activation / Effect on the low dose Cyt c-induced caspase activation (abrogation): numbers are % abrogation; for Effect on the low dose Cyt c-induced caspase activation (stimulation, or result in words): numbers are % stimulation
Experimental: Peptides in the concentration of 750 μM were added to the cell extracts 15 min before the cytochrome c addition. Caspase activation was monitored by the cleavage of caspase-3-specific fluorogenic substrate DEVD-AMC.
(§2) HepG2, human hepatocarcinoma cells and human monoblastoma cell line U937 originated from American Type Culture Collection. Cell extracts were prepared by lysing cells in a hypotonic extraction buffer. To obtain the cytosolic S-100 fraction, the cell lysate was centrifuged for 1 h at 100,000×g. Extracts were either used immediately or frozen at −70° C. for later use.
(§3) Cell-free reactions were typically set up in 13-μl reaction volumes. Apoptosis was induced by addition of various doses of bovine heart cytochrom c and/or purified human AFP in the presence of 1 mM dATP. For 13-μl scale reactions, 10 μl of cell extract (˜2-4 mg/ml, as determined by the Bradford assay) were supplemented with 1 μl of dATP, 1 μl of Cyt c and/or AFP solutions in reaction buffer to receive necessary final concentration of reagents. To assess activity of peptides, various doses of peptides being dissolved in the reaction buffer together with 1 mM dATP were added to the cell extracts. To determine ability of the peptides to modulate apoptotic effects of Cyt c and AFP, peptides were added to extracts 10 min before cytochrome c or AFP. Control samples were incubated with the equal volume of the buffer (3 μl) without reagent addition. To initiate apoptosis, extracts were incubated at 37° C. for 40 min.
(§4) At the end of a caspase activation reaction, extract aliquots (5 μl) were supplemented with fluorogenic substrate DEVD-AMC (3 mM) and then incubated for definite time intervals (0.5-1 h) at 37° C. Reactions were terminated by dilution with addition of 2.0 ml of ice-cold 0.2 mM sodium phosphate buffer, pH 7.5, followed by a measurement of fluorescence with a Perkin Elmer MPF-44A (λexc=365 nm and λem=440 nm ) fluorometer. For each sample, the fluorescence intensity was normalized in the respect of cytosolic protein concentration. Caspase activation was presented as the ratio between the normalized fluorescence intensity of the sample and the corresponding value measured with a control sample.
To test ability of various peptides to affect caspase activation induced by exogenous cytochrome c in cell free system, we used cytosolic cell extracts of HepG2 cells. Aliquots of cell extracts were pre-treated with 750 μM of peptides for 15 min and thereafter various doses of cytochrome c was introduced in the reaction mixture to induce caspase activation.

[4] = system: caspase-3 activation (DEVDase activity); assay: Cyt c/AFP-mediated caspase-3 activation in cell-free cytosolic extracts of HepG2 cells; assay type: biochemical, human; settings: for Effect on Cyt c/AFP-mediated caspase-3 activation (in words): cell-free HepG2 cytosolic extracts, 1 mM dATP; for Ability to affect AFP-induced Cyt c-dependent caspase activation: DEVDase activity, numbers are % abrogation
Experimental: Caspase activation was monitored by the cleavage of specific caspase-3 fluorogenic substrate DEVD-AMC.
as §2, §3, §4

[5] = system: caspase-3 activation (DEVDase activity); settings: cell-free system, no dATP
Experimental: as §2
Cell-free reactions were typically set up in 13-μl reaction volumes. Apoptosis was induced by addition of various doses of bovine heart cytochrom c and/or purified human AFP in the presence of 1 mM dATP. For 13-μl scale reactions, 10 μl of cell extract (˜2-4 mg/ml, as determined by the Bradford assay) were supplemented with 1 μl of dATP, 1 μl of Cyt c and/or AFP solutions in reaction buffer to receive necessary final concentration of reagents. […]
as §4, with “Caspase activation was presented as the ratio between the normalized fluorescence intensity of the sample and the corresponding value measured with a control sample.” left out

U-937 cells [6] = system: U-937 cells
[7] = system: caspase-3 activation (DEVDase activity); assay: dATP-dependent Cyt c-induced caspase-3 (DEVDase) activation in cell-free cytosolic extracts of HepG2 cells; assay type: biochemical, human

*Cys-*Cys-Arg-Gly-Asp-Val-Leu-Asp-Cys* [apocyclin-A]
Effect on the cell growth (% of control) (U-937 cells [1]): +12 % of control | Stimulation of proliferation relatively to the medium control (U-937 cells [2]; 15-min pre-treatment with 1 mM, 24-h cultivation): 15% | Effect on AFP-induced apoptosis in whole cells (in words) (U-937 cells [2]): completely abrogates; also recorded: completely cancelled | Effect on high dose cytochrome c-mediated caspase activation (in words) [3]: decreased; also recorded: significantly inhibited; also recorded: practically completely abrogated; also recorded: significant inhibition | Effect on low dose cytochrome c-induced caspase activation (in words) [3]: significantly enhanced; also recorded: moderately supported; also recorded: notably enhanced; also recorded: same stimulation as full-length AFP molecule | Effect on the high dose Cyt c-induced caspase activation ([3]; cell-free system): 50-80% | Effect on the low dose Cyt c-induced caspase activation (stimulation, or result in words) ([3]; cell-free system): 30% stimulation | Inhibition of caspase activation induced by high doses of endogenous cytochrome c ([3]; peptide 750 μM, cell-free system): 50-70% | Effect on Cyt c/AFP-mediated caspase-3 activation (in words) [4]: abrogates; also recorded: cancelled | Ability to affect AFP-induced Cyt c-dependent caspase activation ([4]; cell-free system): 70-80% | Inhibition of Cyt c/AFP-mediated caspase activation ([4]; cell-free system, combined cytochrome c/AFP treatment): 60-80% | Induction of DEVD-ase activity without dATP addition (in words) [5]: unable to induce | Abrogation of the total anti-Fas-mediated apoptosis effect (U-937 cells [6]; 0.5 mM peptide, U-937 cells, various doses of CH-11): about 50% | Inhibition of anti-Fas-induced apoptosis (in words) (U-937 cells [6]; peptide concentration up to 1 mM, U-937 cells): more significant inhibition | Inhibition of anti-Fas-mediated cell death (in words) (U-937 cells [6]; summary statement, concentration not given): significantly inhibits

*Cys-Cys-His-Gly-Asp-Leu-Leu-Glu-Cys* (CCHGDLLEC; disulfide 1-9) [Cyclic peptide from human serum albumin]
Effect on the cell growth (% of control) (U-937 cells [1]): +18 % of control | Effect on AFP-induced apoptosis in whole cells (in words) (U-937 cells [2]): no activity | Effect on high dose cytochrome c-mediated caspase activation (in words) [3]: no activity | Effect on low dose cytochrome c-induced caspase activation (in words) [3]: no effect | Effect on the high dose Cyt c-induced caspase activation ([3]; cell-free system): no effect | Effect on the low dose Cyt c-induced caspase activation (stimulation, or result in words) ([3]; cell-free system): no effect | Ability to affect AFP-induced Cyt c-dependent caspase activation ([4]; cell-free system): no effect

*Cys-Gly-Arg-Gly-Asp-Val-Leu-Asp-Cys*
Effect on the cell growth (% of control) (U-937 cells [1]): −12 % of control | Effect on AFP-induced apoptosis in whole cells (in words) (U-937 cells [2]): failed to abrogate; also recorded: no activity | Effect on high dose cytochrome c-mediated caspase activation (in words) [3]: no activity | Effect on low dose cytochrome c-induced caspase activation (in words) [3]: no effect | Effect on the high dose Cyt c-induced caspase activation ([3]; cell-free system): no effect | Effect on the low dose Cyt c-induced caspase activation (stimulation, or result in words) ([3]; cell-free system): no effect | Ability to affect AFP-induced Cyt c-dependent caspase activation ([4]; cell-free system): no effect

*Cys-Gly-His-Gly-Asp-Leu-Leu-Glu-Cys* (CGHGDLLEC; disulfide 1-9 (inferred)) [Cyclic peptide from HSA, Cys substituted for Gly]
Effect on AFP-induced apoptosis in whole cells (in words) (U-937 cells [2]): did not affect

HGDLLE [Linear peptide from HSA]
Effect on the cell growth (% of control) (U-937 cells [1]): +20 % of control | Effect on AFP-induced apoptosis in whole cells (in words) (U-937 cells [2]): did not affect | Effect on high dose cytochrome c-mediated caspase activation (in words) [3]: significant inhibition | Effect on low dose cytochrome c-induced caspase activation (in words) [3]: significant abrogation | Effect on the low dose Cyt c-induced caspase activation (abrogation) ([3]; cell-free system): 70% abrogation | Effect on the high dose Cyt c-induced caspase activation ([3]; cell-free system): 90% abrogation | Ability to affect AFP-induced Cyt c-dependent caspase activation ([4]; cell-free system): no effect

RGDVLD [Linear 6-mer peptide from AFP]
Effect on the cell growth (% of control) (U-937 cells [1]): +10 % of control | Effect on AFP-induced apoptosis in whole cells (in words) (U-937 cells [2]): did not revealed any apoptosis-regulating activity; also recorded: incapable of regulation | Effect on AFP-induced apoptosis in whole cells (in words) (U-937 cells [2]; listed as p25): not in the whole cells | Effect on high dose cytochrome c-mediated caspase activation (in words) [3]: significant inhibition | Effect on low dose cytochrome c-induced caspase activation (in words) [3]: significant abrogation | Effect on the low dose Cyt c-induced caspase activation (abrogation) ([3]; cell-free system): 30-50% | Effect on the high dose Cyt c-induced caspase activation ([3]; cell-free system): 80% abrogation | Retention of apocyclin-A's modulation of Cyt c-mediated caspase activation in a cell-free system (in words) ([3]; summary statement): partially retained this activity | Effect on Cyt c/AFP-mediated caspase-3 activation (in words) [4]: able to abrogate | Ability to affect AFP-induced Cyt c-dependent caspase activation ([4]; cell-free system): no effect

B1: AFP: Human alpha-fetoprotein isolated from the cord serum, purity not less than 99.8% (protein, UniProt P02771 19-609, looked up)
Alpha-fetoprotein: RTLHRNEYGIASILDSYQCTAEISLADLATIFFAQFVQEATYKEVSKMVKDALTAIEKPTGDEQSSGCLENQLPAFLEELCHEKEILEKYGHSDCCSQSEEGRHNCFLAHKKPTPASIPLFQVPEPVTSCEAYEEDRETFMNKFIYEIARRHPFLYAPTILLWAARYDKIIPSCCKAENAVECFQTKAATVTKELRESSLLNQHACAVMKNFGTRTFQAITVTKLSQKFTKVNFTEIQKLVLDVAHVHEHCCRGDVLDCLQDGEKIMSYICSQQDTLSNKITECCKLTTLERGQCIIHAENDEKPEGLSPNLNRFLGDRDFNQFSSGEKNIFLASFVHEYSRRHPQLAVSVILRVAKGYQELLEKCFQTENPLECQDKGEEELQKYIQESQALAKRSCGLFQKLGEYYLQNAFLVAYTKKAPQLTSSELMAITRKMAATAATCCQLSEDKLLACGEGAADIIIGHLCIRHEMTPVNPGVGQCCTSSYANRRPCFSSLVVDETYVPPAFSDDKFIFHKDLCQAQGVALQTMKQEFLINLVKQKPQITEEQLEAVIADFSGLLEKCCQGQEQEVCFAEEGQKLISKTRAALGV
Effect on the high dose Cyt c-induced caspase activation ([3]; cell-free system): 80% abrogation | Effect on the low dose Cyt c-induced caspase activation (stimulation, or result in words) ([3]; cell-free system): 50% stimulation | Caspase activation in 'silent' cytosolic extracts with low suboptimal dose of exogenous cyt-c and dATP (in words) ([7]; AFP 7 μM, time-dependent, up to two hours): triggered the process of caspase activation | Caspase activation in the absence of dATP (in words) ([7]; S100 cytosolic extract, no dATP): did not induce any caspase activation | Induction of caspase-3-specific DEVDase activity in S100 cytosolic extract (in words) ([7]; protein 7 μM with dATP 1 mM, no exogenous cyt-c, up to 2 h): triggered dATP-dependent induction
